From US9718828B2 (MERCK SHARP & DOHME CORP., priority 2011, dated 2017)
Where a name gives a salt, the structure may show the parent alone. Read-outs that look alike come from different tables or passages of the source.

Target: Btk enzyme (His-Btk) (Homo sapiens (Human), UniProt Q06187)
Experiment: Btk enzyme activity, IMAP fluorescence polarization assay (Assay Method A)
[1] = read-out: EC50 Btk activity values - Assay Method A, IMAP-FP, 60 min pre-incubation, 5 μM ATP, class 100-1000 is given as ≧100 nM-<1 μM

Btk enzyme (His-Btk), sequence (Q06187 whole entry): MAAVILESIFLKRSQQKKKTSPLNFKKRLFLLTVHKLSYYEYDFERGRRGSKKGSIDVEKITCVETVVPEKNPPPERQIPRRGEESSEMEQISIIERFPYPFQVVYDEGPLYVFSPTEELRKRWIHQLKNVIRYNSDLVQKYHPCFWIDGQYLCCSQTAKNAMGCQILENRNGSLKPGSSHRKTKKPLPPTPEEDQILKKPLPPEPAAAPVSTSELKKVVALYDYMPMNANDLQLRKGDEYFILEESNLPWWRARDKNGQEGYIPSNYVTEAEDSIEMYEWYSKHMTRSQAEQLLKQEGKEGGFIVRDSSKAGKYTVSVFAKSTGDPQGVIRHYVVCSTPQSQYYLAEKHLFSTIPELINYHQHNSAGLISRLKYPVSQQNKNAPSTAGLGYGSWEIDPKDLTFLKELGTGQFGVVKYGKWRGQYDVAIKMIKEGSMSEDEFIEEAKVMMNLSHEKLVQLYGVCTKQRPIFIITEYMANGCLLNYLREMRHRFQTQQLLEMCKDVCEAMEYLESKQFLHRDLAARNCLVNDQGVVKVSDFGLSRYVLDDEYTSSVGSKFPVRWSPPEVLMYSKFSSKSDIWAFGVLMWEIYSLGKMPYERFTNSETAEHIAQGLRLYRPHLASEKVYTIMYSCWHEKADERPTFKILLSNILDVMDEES

| SMILES | EC50 [nM] | EC50 [1] [nM] |
| --- | --- | --- |
| CC(C)C(=O)N1CC[C@@H](c2nc(-c3ccc(C(=O)Nc4ccccn4)cc3)c3c(N)nccn23)C1 [Example 127, (R)-4-(8-amino-3-(1-isobutyrylpyrrolidin-3-yl)imidazo[1,5-a]pyrazin-1-yl)-N-(pyridin-2-yl)benzamide, TFA salt] | 100 to 1000 | – |
| CC(C)C(=O)N1CCC(c2nc(-c3ccc(C(=O)Nc4ccccn4)cc3)c3c(N)nccn23)CC1 [Example 129, 4-(8-amino-3-(1-isobutyrylpiperidin-4-yl)imidazo[1,5-a]pyrazin-1-yl)-N-(pyridin-2-yl)benzamide] | 100 to 1000 | – |
| CCC(=O)NCC(C)c1nc(-c2ccc(C(=O)Nc3cc(C(F)(F)F)ccn3)cc2)c2c(N)nccn12 (stereo not drawn) [Example 130, 4-(8-amino-3-(1-propionamidopropan-2-yl)imidazo[1,5-a]pyrazin-1-yl)-N-(4-(trifluoromethyl)pyridin-2-yl)benzamide] | – | < 10 |
| CC(CNC(=O)C1(C)COC1)c1nc(-c2ccc(C(=O)Nc3cc(C(F)(F)F)ccn3)cc2)c2c(N)nccn12 (stereo not drawn) [Example 131, N-(2-(8-amino-1-(4-(4-(trifluoromethyl)pyridin-2-ylcarbamoyl)phenyl)imidazo[1,5-a]pyrazin-3-yl)propyl)-3-methyloxetane-3-carboxamide] | < 10 | – |
| CC(CNC(=O)OCc1ccccc1)c1nc(-c2ccc(C(=O)Nc3cc(C(F)(F)F)ccn3)cc2)c2c(N)nccn12 (stereo not drawn) [Example 132, benzyl 2-(8-amino-1-(4-(4-(trifluoromethyl)pyridin-2-ylcarbamoyl)phenyl)imidazo[1,5-a]pyrazin-3-yl)propylcarbamate] | 10 to 100 | – |
| Nc1nccn2c([C@@H]3CCCN(Cc4ccccc4)C3)nc(-c3ccc(C(=O)Nc4ccccn4)cc3)c12 [Example 133, (R)-4-(8-amino-3-(1-benzylpiperidin-3-yl)imidazo[1,5-a]pyrazin-1-yl)-N-(pyridin-2-yl)benzamide] | 100 to 1000 | – |
| Nc1nccn2c([C@@H]3CCCN(CCc4ccccc4)C3)nc(-c3ccc(C(=O)Nc4ccccn4)cc3)c12 [Example 134, (R)-4-(8-amino-3-(1-phenethylpiperidin-3-yl)imidazo[1,5-a]pyrazin-1-yl)-N-(pyridin-2-yl)benzamide, TFA salt] | 10 to 100 | – |
| Nc1nccn2c([C@@H]3CCCN(Cc4ccncc4)C3)nc(-c3ccc(C(=O)Nc4cc(C(F)(F)F)ccn4)cc3)c12 [Example 141, (R)-4-(8-amino-3-(1-(pyridin-4-ylmethyl)piperidin-3-yl)imidazo[1,5-a]pyrazin-1-yl)-N-(4-(trifluoromethyl)pyridin-2-yl)benzamide, TFA salt] | – | < 10 |
| Nc1nccn2c(C3CC4CCC3N4C(=O)C3CCCO3)nc(-c3ccc(C(=O)Nc4ccccn4)cc3)c12 (stereo not drawn) [Example 146, 4-(8-amino-3-(7-(tetrahydrofuran-2-carbonyl)-7-azabicyclo[2.2.1]heptan-2-yl)imidazo[1,5-a]pyrazin-1-yl)-N-(pyridin-2-yl)benzamide] | 10 to 100 | – |
| CCC(=O)N1C2CCC1C(c1nc(-c3ccc(C(=O)Nc4ccccn4)cc3)c3c(N)nccn13)C2 (stereo not drawn) [Example 147, 4-(8-amino-3-(7-propionyl-7-azabicyclo[2.2.1]heptan-2-yl)imidazo[1,5-a]pyrazin-1-yl)-N-(pyridin-2-yl)benzamide] | 100 to 1000 | – |
| COCCC(=O)N1C2CCC1C(c1nc(-c3ccc(C(=O)Nc4ccccn4)cc3)c3c(N)nccn13)C2 (stereo not drawn) [Example 148, 4-(8-amino-3-(7-(3-methoxypropanoyl)-7-azabicyclo[2.2.1]heptan-2-yl)imidazo[1,5-a]pyrazin-1-yl)-N-(pyridin-2-yl)benzamide] | 10 to 100 | – |
| Nc1nccn2c(C3CC4CCC3N4C(=O)OCc3ccccc3)nc(-c3ccc(C(=O)Nc4ccccn4)cc3)c12 (stereo not drawn) [Example 149, benzyl 2-(8-amino-1-(4-(pyridin-2-ylcarbamoyl)phenyl)imidazo [1,5-a]pyrazin-3-yl)-7-azabicyclo[2.2.1]heptane-7-carboxylate] | 10 to 100 | – |
| CC(C)C(=O)N1CCC2(CC1)CC2c1nc(-c2ccc(C(=O)Nc3ccccn3)cc2)c2c(N)nccn12 (stereo not drawn) [Example 150, 4-(8-amino-3-(6-isobutyryl-6-azaspiro[2.5]octan-1-yl)imidazo[1,5-a]pyrazin-1-yl)-N-(pyridin-2-yl) benzamidee] | 100 to 1000 | – |
| COCCC(=O)N1CCC2(CC1)CC2c1nc(-c2ccc(C(=O)Nc3ccccn3)cc2)c2c(N)nccn12 (stereo not drawn) [Example 151, 4-(8-amino-3-(6-(3-methoxypropanoyl)-6-azaspiro[2.5]octan-1-yl)imidazo[1,5-a]pyrazin-1-yl)-N-(pyridin-2-yl)benzamide] | 100 to 1000 | – |
| Nc1nccn2c(C3CC34CCN(C(=O)CO)CC4)nc(-c3ccc(C(=O)Nc4ccccn4)cc3)c12 (stereo not drawn) [Example 152, 4-(8-amino-3-(6-(2-hydroxyacetyl)-6-azaspiro[2.5]octan-1-yl)imidazo[1,5-a]pyrazin-1-yl)-N-(pyridin-2-yl)benzamide] | 100 to 1000 | – |
| CCC(=O)N1CCC2(CC1)CC2c1nc(-c2ccc(C(=O)Nc3ccccn3)cc2)c2c(N)nccn12 (stereo not drawn) [Example 153, 4-(8-amino-3-(6-propionyl-6-azaspiro[2.5]octan-1-yl)imidazo[1,5-a]pyrazin-1-yl)-N-(pyridin-2-yl)benzamide] | 100 to 1000 | – |
| CCC(=O)N1CCSC(c2nc(-c3ccc(C(=O)Nc4cc(C(F)(F)F)ccn4)cc3)c3c(N)nccn23)C1 (stereo not drawn) [Example 172, 4-(8-amino-3-(4-propionylthiomorpholin-2-yl)imidazo[1,5-a]pyrazin-1-yl)-N-(4-(trifluoromethyl)pyridin-2-yl)benzamide] | – | < 10 |
| CC(C)C(=O)N1CCOC(c2nc(-c3ccc(C(=O)Nc4cc(C(F)(F)F)ccn4)cc3)c3c(N)nccn23)C1 (stereo not drawn) [Example 173, 4-(8-amino-3-(4-isobutyrylmorpholin-2-yl)imidazo[1,5-a]pyrazin-1-yl)-N-(4-(trifluoromethyl)pyridin-2-yl)benzamide] | < 10 | – |
| CC(C)(F)C(=O)N1CCOC(c2nc(-c3ccc(C(=O)Nc4cc(C(F)(F)F)ccn4)cc3)c3c(N)nccn23)C1 (stereo not drawn) [Example 174, 4-(8-amino-3-(4-(2-fluoro-2-methylpropanoyl)morpholin-2-yl)imidazo[1,5-a]pyrazin-1-yl)-N-(4-(trifluoromethyl)pyridin-2-yl)benzamide] | – | < 10 |

Now from value to molecule:

| EC50 [nM] | EC50 [1] [nM] | SMILES |
| --- | --- | --- |
| 100 to 1000 | – | Nc1nccn2c([C@@H]3CCN(C(=O)C4CCOC4)C3)nc(-c3ccc(C(=O)Nc4ccccn4)cc3)c12 (stereo partly drawn) [Example 128, (R)-4-(8-amino-3-(1-(tetrahydrofuran-3-carbonyl)pyrrolidin-3-yl)imidazo[1,5-a]pyrazin-1-yl)-N-(pyridin-2-yl)benzamide, TFA salt] |
| – | < 10 | Cn1cc(CN2CCC[C@@H](c3nc(-c4ccc(C(=O)Nc5ccccn5)cc4)c4c(N)nccn34)C2)cn1 [Example 135, (R)-4-(8-amino-3-(1-((1-methyl-1H-pyrazol-4-yl)methyl)piperidin-3-yl)imidazo[1,5-a]pyrazin-1-yl)-N-(pyridin-2-yl)benzamide, TFA salt] |
| 10 to 100 | – | Nc1nccn2c([C@@H]3CCCN(CCC(F)(F)F)C3)nc(-c3ccc(C(=O)Nc4ccccn4)cc3)c12 [Example 136, (R)-4-(8-amino-3-(1-(3,3,3-trifluoropropyl)piperidin-3-yl)imidazo[1,5-a]pyrazin-1-yl)-N-(pyridin-2-yl)benzamide TFA salt] |
| 100 to 1000 | – | CCOC(=O)C1CC1CN1CCC[C@@H](c2nc(-c3ccc(C(=O)Nc4ccccn4)cc3)c3c(N)nccn23)C1 (stereo partly drawn) [Example 137, ethyl 2-(((R)-3-(8-amino-1-(4-(pyridin-2-ylcarbamoyl)phenyl)imidazo [1,5-a]pyrazin-3-yl)piperidin-1-yl)methyl) cyclopropanecarboxylate, TFA salt] |
| 10 to 100 | – | CCN1CCC[C@@H](c2nc(-c3ccc(C(=O)Nc4cc(C(F)(F)F)ccn4)cc3)c3c(N)nccn23)C1 [Example 138, (R)-4-(8-amino-3-(1-ethylpiperidin-3-yl)imidazo[1,5-a]pyrazin-1-yl)-N-(4-(trifluoromethyl)pyridin-2-yl)benzamide, TFA salt] |
| – | < 10 | Nc1nccn2c([C@@H]3CCCN(CC(O)CO)C3)nc(-c3ccc(C(=O)Nc4cc(C(F)(F)F)ccn4)cc3)c12 (stereo partly drawn) [Example 139, 4-(8-amino-3-((3R)-1-(2,3-dihydroxypropyl)piperidin-3-yl)imidazo[1,5-a]pyrazin-1-yl)-N-(4-(trifluoromethyl)pyridin-2-yl)benzamide, TFA salt] |
| 10 to 100 | – | Nc1nccn2c([C@@H]3CCCN(CC4CC4)C3)nc(-c3ccc(C(=O)Nc4cc(C(F)(F)F)ccn4)cc3)c12 [Example 140, (R)-4-(8-amino-3-(1-(cyclopropylmethyl)piperidin-3-yl)imidazo[1,5-a]pyrazin-1-yl)-N-(4-(trifluoromethyl)pyridin-2-yl)benzamide, TFA salt] |
| – | < 10 | Nc1nccn2c([C@@H]3CCCN(CC4CCOC4)C3)nc(-c3ccc(C(=O)Nc4cc(C(F)(F)F)ccn4)cc3)c12 (stereo partly drawn) [Example 142, 4-(8-amino-3-((3R)-1-((tetrahydrofuran-3-yl)methyl)piperidin-3-yl)imidazo[1,5-a]pyrazin-1-yl)-N-(4-(trifluoromethyl)pyridin-2-yl)benzamide, TFA salt] |
| 10 to 100 | – | Nc1nccn2c([C@@H]3CCCN(CC4CCCC4)C3)nc(-c3ccc(C(=O)Nc4cc(C5CC5)ccn4)cc3)c12 [Example 143, (R)-4-(8-amino-3-(1-(cyclopentylmethyl)piperidin-3-yl)imidazo[1,5-a]pyrazin-1-yl)-N-(4-cyclopropylpyridin-2-yl)benzamide, TFA salt] |
| 10 to 100 | – | Nc1nccn2c([C@@H]3CCCN(Cc4ccc[nH]4)C3)nc(-c3ccc(C(=O)Nc4cc(C5CC5)ccn4)cc3)c12 [Example 144, (R)-4-(3-(1-((1H-pyrrol-2-yl)methyl)piperidin-3-yl)-8-aminoimidazo[1,5-a]pyrazin-1-yl)-N-(4-cyclopropylpyridin-2-yl)benzamide, TFA salt] |
| 10 to 100 | – | Nc1nccn2c([C@@H]3CCCN(CC4CCOC4)C3)nc(-c3ccc(C(=O)Nc4cc(C5CC5)ccn4)cc3)c12 (stereo partly drawn) [Example 145, 4-(8-amino-3-((3R)-1-((tetrahydrofuran-3-yl)methyl)piperidin-3-yl)imidazo[1,5-a]pyrazin-1-yl)-N-(4-cyclopropylpyridin-2-yl)benzamide, TFA salt] |
